The values below come from patent US20250019350A1, “SYNTHESIS OF THE PROSTATE SPECIFIC MEMBRANE ANTIGEN (PSMA) RADIOLABELED INHIBITOR [18F]DCFPYL” (Progenics Pharmaceuticals, Inc, priority 2023, published 2025).

A short description of data set [1]: HPLC/UV (264 nm) chemical impurity assay; ascorbic acid related impurity. The format is physicochemical. The note with it: development lot at 163.0 mCi/mL with ascorbic acid. How it is done:
Analytical HPLC method was used. The method employs UV detection at 264 nm for chemical impurities, and an Eckert & Ziegler model B-FC-1000 gamma detector for radiochemical assays.
Since the peak has not been previously observed in preparations in the absence of ascorbic acid it is likely ascorbic acid related and was further investigated. A decayed sample from the lot produced was analyzed further and confirmed the presence of the peak, FIG. 35. […] The sample was assayed for chemical impurities at T=0, 4, 10 and 24 hours when held inverted at ambient conditions. […] The impurity only formed with radioactivity exposure but not when stored in light or dark at ambient conditions (see FIG. 37).

Data set [2] can be described thus: Retention/recovery of [19F]DCFPyL on the HLB solvent exchange cartridge as a function of pH (load, wash, product samples). The format is physicochemical. How it is done:
The goal of this study was to characterize the impact of pH on the retention of [^18F]DCFPyL on the HLB solvent exchange cartridge. […] The pH of one solution was adjusted to 2 and a second to 4 by adding 1N HCl. A third solution was used without adjusting its native pH of 7.2. Using a BD syringe, 10 mL of each solution was spiked with [^19F]DCFPyL (50 μg) by adding 0.5 mL of a 100 μg/mL stock solution. Each spiked solution was loaded onto a HLB cartridge at a rate of approximately 2 mL/min. […] The eluent from each HLB cartridge was individually collected and identified as the “wash solution.” Each HLB cartridge was then individually eluted with 1 mL of ethanol, the samples collected and are identified as the “product sample.” The load solution and wash solution samples were analyzed using a drug product chemical impurity assay after a 1 to 10 mL dilution with saline, while the ethanolic product samples were analyzed following a 0.5 to 10 dilution with saline.
The goal of this study was to characterize the impact of pH on the retention of ^18F-DCFPyL on the HLB solvent exchange cartridge. […] The pH of one solution was adjusted to 2 and a second to 4 by adding 1N HCl. A third solution was used without adjusting its native pH of 7.2. At this pH the solution will be mainly sodium ascorbate. Using a BD syringe, 10 mL of each solution was spiked with ^19F-DCFPyL (50 μg) by adding 0.5 mL of a 100 μg/mL stock solution. Each spiked solution was loaded onto an HLB cartridge at a rate of approximately 2 mL/min and the solution collected after the HLB column is identified as the load solution. […] Each HLB cartridge was then individually eluted with 1 mL of ethanol, the solution collected after the HLB column is identified as the product sample. The load solution and wash solution samples were analyzed using the drug product chemical impurity assay after a 1 to 10 mL dilution with saline, while the ethanolic product samples were analyzed following a 0.5 to 10 mL dilution with saline.

Molecules are shown by their SMILES.

Take `O=C(O)CC[C@H](NC(=O)N[C@@H](CCCCNC(=O)c1ccc([18F])nc1)C(=O)O)C(=O)O` [Lot 18F-DCFPyL, 2-(3-{1-carboxy-5-[(6-[18F]fluoro-pyridine-3-carbonyl)-amino]-pentyl}ureido)-pentanedioic acid]: in data set [1], the “chemical impurity at retention time approximately 4.6 minutes on the UV trace” value was determined as 0.9 µg/mL. The “retention of [18F]-DCFPyL by the HLB cartridge” value is 98% in data set [2] (pH 2) and 81% in data set [2] (pH 4).
